The values that follow come from patent US7994140B2, “Classes of compounds that interact with GPCRs” (Alchemia Limited, priority 2002, dated 2011).

One test has as its target T1, MC4 (Homo sapiens, UniProt P32245).
T1 construct: purchased Perkin Elmer BioSignal; host or cells: HEK 293
As to the kind of experiment: GPCR radioligand binding (RLB) assay, melanocortin MC4, [125I]NDP-αMSH. To be noted: 10 micromolar; Example Library 4. In a few lines: (§1)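 Competition binding against radioligand ([125I]NDP-αMSH for MC4, [125I]SST-14 for SST5) on membranes of HEK 293 cells carrying the human receptor; buffer and incubation time optimized per receptor. Filtration through 0.5% PEI-treated glass fiber, washing, then scintillation counting.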

The target in a further test is T2, SST5 (Homo sapiens, UniProt P35346).
T2 construct: purchased Perkin Elmer BioSignal; host or cells: HEK 293
T2 sequence (P35346 whole entry): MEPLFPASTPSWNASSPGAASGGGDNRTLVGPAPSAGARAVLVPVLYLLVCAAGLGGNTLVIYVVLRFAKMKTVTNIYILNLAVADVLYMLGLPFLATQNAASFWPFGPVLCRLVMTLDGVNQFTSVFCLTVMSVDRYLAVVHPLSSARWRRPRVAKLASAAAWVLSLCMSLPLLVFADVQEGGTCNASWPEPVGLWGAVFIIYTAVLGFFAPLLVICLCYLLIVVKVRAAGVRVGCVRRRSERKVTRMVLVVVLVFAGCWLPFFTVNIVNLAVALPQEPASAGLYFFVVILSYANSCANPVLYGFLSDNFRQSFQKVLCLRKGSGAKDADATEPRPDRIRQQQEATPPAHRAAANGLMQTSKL
The test can be described thus: GPCR radioligand binding (RLB) assay, somatostatin SST5, [125I]SST-14. To be noted: 10 micromolar; Example Library 4. In a few lines: as §1

T1 sequence (P32245 whole entry): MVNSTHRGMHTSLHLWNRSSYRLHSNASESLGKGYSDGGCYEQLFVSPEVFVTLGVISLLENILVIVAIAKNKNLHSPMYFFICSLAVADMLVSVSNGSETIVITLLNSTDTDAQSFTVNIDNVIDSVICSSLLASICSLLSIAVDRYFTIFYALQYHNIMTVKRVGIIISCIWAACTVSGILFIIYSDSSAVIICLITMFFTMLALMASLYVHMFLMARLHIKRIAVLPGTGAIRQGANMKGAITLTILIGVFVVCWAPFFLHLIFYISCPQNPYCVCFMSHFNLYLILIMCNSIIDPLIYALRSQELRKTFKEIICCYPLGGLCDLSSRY

With `COCC1OC(OCc2ccccc2)C(NC(=O)CN)C(OCc2ccc(Cl)cc2)C1O` (centres unmarked) [Compound 219], the “MC4 inhibition at 10 micromolar” value at MC4 is on record as “+ (Indicates inhibition greater than . . . 50%)”. The “SSTS inhibition at 10 micromolar” value on SST5 is recorded as “+ (Indicates inhibition greater than . . . 50%)”.
With `COCC1OC(OCc2ccccc2)C(NC(=O)CNC(=N)N)C(OCc2ccc(Cl)cc2)C1O` (centres unmarked) [Compound 220], the “MC4 inhibition at 10 micromolar” value on MC4 is on record as “+ (Indicates inhibition greater than . . . 50%)”. Moreover, the “SSTS inhibition at 10 micromolar” value at SST5 is on record as “+ (Indicates inhibition greater than . . . 50%)”.
As to `COCC1OC(OCc2ccccc2)C(NC(=O)CCN)C(OCc2ccc(Cl)cc2)C1O` (centres unmarked) [Compound 221], at MC4, the “MC4 inhibition at 10 micromolar” value was “+ (Indicates inhibition greater than . . . 50%)”. Moreover, the “SSTS inhibition at 10 micromolar” value at SST5 is “+ (Indicates inhibition greater than . . . 50%)”.
Turning to `COCC1OC(OCc2ccccc2)C(NC(=O)CCNC(=N)N)C(OCc2ccc(Cl)cc2)C1O` (centres unmarked) [Compound 222], the “MC4 inhibition at 10 micromolar” value on MC4 is listed as “+ (Indicates inhibition greater than . . . 50%)”. Moreover, the “SSTS inhibition at 10 micromolar” value at SST5 is on record as “+ (Indicates inhibition greater than . . . 50%)”.
On to `COCC1OC(OCc2ccccc2)C(NC(=O)CCCN)C(OCc2ccc(Cl)cc2)C1O` (centres unmarked) [Compound 223], for which the “MC4 inhibition at 10 micromolar” value on MC4 was “+ (Indicates inhibition greater than . . . 50%)”. Further, the “SSTS inhibition at 10 micromolar” value on SST5 was “+ (Indicates inhibition greater than . . . 50%)”.
For the compound `COCC1OC(OCc2ccccc2)C(NC(=O)CCCNC(=N)N)C(OCc2ccc(Cl)cc2)C1O` (centres unmarked) [Compound 224], the “MC4 inhibition at 10 micromolar” value on MC4 is reported as “+ (Indicates inhibition greater than . . . 50%)”. In addition, the “SSTS inhibition at 10 micromolar” value on SST5 is “+ (Indicates inhibition greater than . . . 50%)”.
For `COCC1OC(OCc2ccccc2)C(NC(=O)CN)C(OCc2ccc(-c3ccccc3)cc2)C1O` (centres unmarked) [Compound 225], the “MC4 inhibition at 10 micromolar” value at MC4 is reported as “+ (Indicates inhibition greater than . . . 50%)”. In addition, at SST5, the “SSTS inhibition at 10 micromolar” value is given as “+ (Indicates inhibition greater than . . . 50%)”.
Take `COCC1OC(OCc2ccccc2)C(NC(=O)CNC(=N)N)C(OCc2ccc(-c3ccccc3)cc2)C1O` (centres unmarked) [Compound 226]: the “MC4 inhibition at 10 micromolar” value on MC4 is recorded as “+ (Indicates inhibition greater than . . . 50%)”. The “SSTS inhibition at 10 micromolar” value on SST5 is given as “+ (Indicates inhibition greater than . . . 50%)”.
`COCC1OC(OCc2ccccc2)C(NC(=O)CCN)C(OCc2ccc(-c3ccccc3)cc2)C1O` (centres unmarked) [Compound 227]: the “MC4 inhibition at 10 micromolar” value at MC4 is on record as “+ (Indicates inhibition greater than . . . 50%)”. Further, at SST5, the “SSTS inhibition at 10 micromolar” value is given as “+ (Indicates inhibition greater than . . . 50%)”.
For `COCC1OC(OCc2ccccc2)C(NC(=O)CCNC(=N)N)C(OCc2ccc(-c3ccccc3)cc2)C1O` (centres unmarked) [Compound 228], the “MC4 inhibition at 10 micromolar” value at MC4 is given as “+ (Indicates inhibition greater than . . . 50%)”. Further, on SST5, the “SSTS inhibition at 10 micromolar” value is listed as “+ (Indicates inhibition greater than . . . 50%)”.
With `COCC1OC(OCc2ccccc2)C(NC(=O)CCCN)C(OCc2ccc(-c3ccccc3)cc2)C1O` (centres unmarked) [Compound 229], at MC4, the “MC4 inhibition at 10 micromolar” value is “+ (Indicates inhibition greater than . . . 50%)”. Besides, the “SSTS inhibition at 10 micromolar” value at SST5 is “+ (Indicates inhibition greater than . . . 50%)”.
With `COCC1OC(OCc2ccccc2)C(NC(=O)CCCNC(=N)N)C(OCc2ccc(-c3ccccc3)cc2)C1O` (centres unmarked) [Compound 230], the “MC4 inhibition at 10 micromolar” value on MC4 was “+ (Indicates inhibition greater than . . . 50%)”. The “SSTS inhibition at 10 micromolar” value at SST5 is given as “+ (Indicates inhibition greater than . . . 50%)”.
Take `COCC1OC(OCc2ccccc2)C(NC(=O)CNC(=N)N)C(OCc2ccc3ccccc3c2)C1O` (centres unmarked) [Compound 232]: the “MC4 inhibition at 10 micromolar” value at MC4 is reported as “+ (Indicates inhibition greater than . . . 50%)”. For the same compound, the “SSTS inhibition at 10 micromolar” value at SST5 was “+ (Indicates inhibition greater than . . . 50%)”.
In the case of `COCC1OC(OCc2ccccc2)C(NC(=O)CCN)C(OCc2ccc3ccccc3c2)C1O` (centres unmarked) [Compound 233], the “MC4 inhibition at 10 micromolar” value on MC4 was “+ (Indicates inhibition greater than . . . 50%)”. For the same compound, the “SSTS inhibition at 10 micromolar” value on SST5 is recorded as “+ (Indicates inhibition greater than . . . 50%)”.
On to `COCC1OC(OCc2ccccc2)C(NC(=O)CCNC(=N)N)C(OCc2ccc3ccccc3c2)C1O` (centres unmarked) [Compound 234], for which the “MC4 inhibition at 10 micromolar” value at MC4 is given as “+ (Indicates inhibition greater than . . . 50%)”. Moreover, the “SSTS inhibition at 10 micromolar” value at SST5 is “+ (Indicates inhibition greater than . . . 50%)”.
As for `COCC1OC(OCc2ccccc2)C(NC(=O)CCCN)C(OCc2ccc3ccccc3c2)C1O` (centres unmarked) [Compound 235], the “MC4 inhibition at 10 micromolar” value on MC4 was “+ (Indicates inhibition greater than . . . 50%)”. On SST5, the “SSTS inhibition at 10 micromolar” value is reported as “+ (Indicates inhibition greater than . . . 50%)”.
For `COCC1OC(OCc2ccccc2)C(NC(=O)CCCNC(=N)N)C(OCc2ccc3ccccc3c2)C1O` (centres unmarked) [Compound 236], the “MC4 inhibition at 10 micromolar” value at MC4 is recorded as “+ (Indicates inhibition greater than . . . 50%)”. In addition, the “SSTS inhibition at 10 micromolar” value on SST5 is recorded as “+ (Indicates inhibition greater than . . . 50%)”.
On to `COCC1OC(OCc2ccc(Cl)cc2)C(NC(=O)CNC(=N)N)C(OCc2ccccc2)C1O` (centres unmarked) [Compound 237], for which the “MC4 inhibition at 10 micromolar” value at MC4 is reported as “+ (Indicates inhibition greater than . . . 50%)”. Besides, the “SSTS inhibition at 10 micromolar” value at SST5 is reported as “+ (Indicates inhibition greater than . . . 50%)”.
Take `COCC1OC(OCc2ccc(Cl)cc2)C(NC(=O)CCNC(=N)N)C(OCc2ccccc2)C1O` (centres unmarked) [Compound 239]: the “MC4 inhibition at 10 micromolar” value at MC4 is on record as “+ (Indicates inhibition greater than . . . 50%)”. Further, the “SSTS inhibition at 10 micromolar” value at SST5 was “+ (Indicates inhibition greater than . . . 50%)”.
For the compound `COCC1OC(OCc2ccc(Cl)cc2)C(NC(=O)CCCNC(=N)N)C(OCc2ccccc2)C1O` (centres unmarked) [Compound 241], the “MC4 inhibition at 10 micromolar” value on MC4 is “+ (Indicates inhibition greater than . . . 50%)”. Further, the “SSTS inhibition at 10 micromolar” value on SST5 is listed as “+ (Indicates inhibition greater than . . . 50%)”.
Regarding `COCC1OC(OCc2ccc(Cl)cc2)C(NC(=O)CN)C(OCc2ccc(Cl)cc2)C1O` (centres unmarked) [Compound 242], at MC4, the “MC4 inhibition at 10 micromolar” value was “+ (Indicates inhibition greater than . . . 50%)”. For the same compound, at SST5, the “SSTS inhibition at 10 micromolar” value is reported as “+ (Indicates inhibition greater than . . . 50%)”.
As to `COCC1OC(OCc2ccc(Cl)cc2)C(NC(=O)CNC(=N)N)C(OCc2ccc(Cl)cc2)C1O` (centres unmarked) [Compound 243], the “MC4 inhibition at 10 micromolar” value on MC4 is “+ (Indicates inhibition greater than . . . 50%)”. Moreover, the “SSTS inhibition at 10 micromolar” value at SST5 is reported as “+ (Indicates inhibition greater than . . . 50%)”.
As for `COCC1OC(OCc2ccc(Cl)cc2)C(NC(=O)CCN)C(OCc2ccc(Cl)cc2)C1O` (centres unmarked) [Compound 244], the “MC4 inhibition at 10 micromolar” value on MC4 was “+ (Indicates inhibition greater than . . . 50%)”. Further, the “SSTS inhibition at 10 micromolar” value at SST5 is listed as “+ (Indicates inhibition greater than . . . 50%)”.
Take `COCC1OC(OCc2ccc(Cl)cc2)C(NC(=O)CCNC(=N)N)C(OCc2ccc(Cl)cc2)C1O` (centres unmarked) [Compound 245]: the “MC4 inhibition at 10 micromolar” value on MC4 is “+ (Indicates inhibition greater than . . . 50%)”. Also, the “SSTS inhibition at 10 micromolar” value on SST5 was “+ (Indicates inhibition greater than . . . 50%)”.
Take `COCC1OC(OCc2ccc(Cl)cc2)C(NC(=O)CCCN)C(OCc2ccc(Cl)cc2)C1O` (centres unmarked) [Compound 246]: the “MC4 inhibition at 10 micromolar” value at MC4 is recorded as “+ (Indicates inhibition greater than . . . 50%)”. Also, at SST5, the “SSTS inhibition at 10 micromolar” value is on record as “+ (Indicates inhibition greater than . . . 50%)”.
For `COCC1OC(OCc2ccc(Cl)cc2)C(NC(=O)CCCNC(=N)N)C(OCc2ccc(Cl)cc2)C1O` (centres unmarked) [Compound 247], the “MC4 inhibition at 10 micromolar” value on MC4 was “+ (Indicates inhibition greater than . . . 50%)”. Further, the “SSTS inhibition at 10 micromolar” value on SST5 is reported as “+ (Indicates inhibition greater than . . . 50%)”.
On to `COCC1OC(OCc2ccc(Cl)cc2)C(NC(=O)CN)C(OCc2ccc(-c3ccccc3)cc2)C1O` (centres unmarked) [Compound 248], for which the “MC4 inhibition at 10 micromolar” value on MC4 was “+ (Indicates inhibition greater than . . . 50%)”. On SST5, the “SSTS inhibition at 10 micromolar” value was “+ (Indicates inhibition greater than . . . 50%)”.
Regarding `COCC1OC(OCc2ccc(Cl)cc2)C(NC(=O)CNC(=N)N)C(OCc2ccc(-c3ccccc3)cc2)C1O` (centres unmarked) [Compound 249], the “MC4 inhibition at 10 micromolar” value on MC4 is listed as “+ (Indicates inhibition greater than . . . 50%)”. The “SSTS inhibition at 10 micromolar” value on SST5 is “+ (Indicates inhibition greater than . . . 50%)”.
`COCC1OC(OCc2ccc(Cl)cc2)C(NC(=O)CCN)C(OCc2ccc(-c3ccccc3)cc2)C1O` (centres unmarked) [Compound 250]: the “MC4 inhibition at 10 micromolar” value on MC4 was “+ (Indicates inhibition greater than . . . 50%)”. The “SSTS inhibition at 10 micromolar” value at SST5 is on record as “+ (Indicates inhibition greater than . . . 50%)”.
Turning to `COCC1OC(OCc2ccc(Cl)cc2)C(NC(=O)CCNC(=N)N)C(OCc2ccc(-c3ccccc3)cc2)C1O` (centres unmarked) [Compound 251], the “MC4 inhibition at 10 micromolar” value on MC4 is recorded as “+ (Indicates inhibition greater than . . . 50%)”. The “SSTS inhibition at 10 micromolar” value on SST5 is reported as “+ (Indicates inhibition greater than . . . 50%)”.
As for `COCC1OC(OCc2ccc(Cl)cc2)C(NC(=O)CCCN)C(OCc2ccc(-c3ccccc3)cc2)C1O` (centres unmarked) [Compound 252], on MC4, the “MC4 inhibition at 10 micromolar” value is reported as “+ (Indicates inhibition greater than . . . 50%)”. At SST5, the “SSTS inhibition at 10 micromolar” value was “+ (Indicates inhibition greater than . . . 50%)”.
For the compound `COCC1OC(OCc2ccc(Cl)cc2)C(NC(=O)CCCNC(=N)N)C(OCc2ccc(-c3ccccc3)cc2)C1O` (centres unmarked) [Compound 253], at MC4, the “MC4 inhibition at 10 micromolar” value is on record as “+ (Indicates inhibition greater than . . . 50%)”. In addition, the “SSTS inhibition at 10 micromolar” value at SST5 is on record as “+ (Indicates inhibition greater than . . . 50%)”.
With `COCC1OC(OCc2ccc(Cl)cc2)C(NC(=O)CN)C(OCc2ccc3ccccc3c2)C1O` (centres unmarked) [Compound 254], the “MC4 inhibition at 10 micromolar” value at MC4 is given as “+ (Indicates inhibition greater than . . . 50%)”. Also, the “SSTS inhibition at 10 micromolar” value at SST5 is “+ (Indicates inhibition greater than . . . 50%)”.
For the compound `COCC1OC(OCc2ccc(Cl)cc2)C(NC(=O)CNC(=N)N)C(OCc2ccc3ccccc3c2)C1O` (centres unmarked) [Compound 255], the “MC4 inhibition at 10 micromolar” value on MC4 is on record as “+ (Indicates inhibition greater than . . . 50%)”. For the same compound, the “SSTS inhibition at 10 micromolar” value at SST5 is “+ (Indicates inhibition greater than . . . 50%)”.
